Like-named read-outs stand apart in the source and are kept apart here. Values belong to the compound of their own block, whether it stands above or below them.
Assays:
Test in all cases: biochemical
Set-up in all cases: DiscoveRx KINOMEscan active site-directed competition binding; percent of control kinase bound to immobilised ligand
[1] = target: T1, CASK (Homo sapiens, UniProt O14936)
T1 sequence (O14936 1-926): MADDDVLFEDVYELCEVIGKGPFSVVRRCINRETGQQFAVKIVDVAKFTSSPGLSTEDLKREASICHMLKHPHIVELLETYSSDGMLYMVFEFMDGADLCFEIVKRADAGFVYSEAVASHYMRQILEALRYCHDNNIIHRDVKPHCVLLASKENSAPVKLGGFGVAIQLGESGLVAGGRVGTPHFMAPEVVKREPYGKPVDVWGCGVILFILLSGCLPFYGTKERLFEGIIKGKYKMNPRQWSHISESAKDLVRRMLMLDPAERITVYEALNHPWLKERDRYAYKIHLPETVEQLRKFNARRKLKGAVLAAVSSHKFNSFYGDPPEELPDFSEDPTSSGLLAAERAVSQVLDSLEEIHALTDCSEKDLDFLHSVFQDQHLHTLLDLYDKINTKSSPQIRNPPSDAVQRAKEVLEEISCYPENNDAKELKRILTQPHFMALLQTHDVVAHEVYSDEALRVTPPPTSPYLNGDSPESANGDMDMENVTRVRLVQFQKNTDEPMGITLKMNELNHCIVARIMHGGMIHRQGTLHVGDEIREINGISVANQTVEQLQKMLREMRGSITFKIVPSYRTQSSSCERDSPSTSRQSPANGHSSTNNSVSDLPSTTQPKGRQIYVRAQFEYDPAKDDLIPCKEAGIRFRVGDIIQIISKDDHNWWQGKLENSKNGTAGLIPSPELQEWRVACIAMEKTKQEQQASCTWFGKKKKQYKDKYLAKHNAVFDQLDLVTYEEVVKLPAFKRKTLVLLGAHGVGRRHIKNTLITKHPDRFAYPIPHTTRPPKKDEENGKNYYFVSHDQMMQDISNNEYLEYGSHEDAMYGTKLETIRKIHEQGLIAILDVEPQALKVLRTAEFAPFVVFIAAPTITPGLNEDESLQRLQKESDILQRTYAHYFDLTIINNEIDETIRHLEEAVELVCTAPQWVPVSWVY

[2] = target: EGFR(L858R) (Homo sapiens, UniProt P00533, L858R)
[3] = target: T2, HASPIN (Homo sapiens, UniProt Q8TF76)
T2 sequence (Q8TF76 1-798): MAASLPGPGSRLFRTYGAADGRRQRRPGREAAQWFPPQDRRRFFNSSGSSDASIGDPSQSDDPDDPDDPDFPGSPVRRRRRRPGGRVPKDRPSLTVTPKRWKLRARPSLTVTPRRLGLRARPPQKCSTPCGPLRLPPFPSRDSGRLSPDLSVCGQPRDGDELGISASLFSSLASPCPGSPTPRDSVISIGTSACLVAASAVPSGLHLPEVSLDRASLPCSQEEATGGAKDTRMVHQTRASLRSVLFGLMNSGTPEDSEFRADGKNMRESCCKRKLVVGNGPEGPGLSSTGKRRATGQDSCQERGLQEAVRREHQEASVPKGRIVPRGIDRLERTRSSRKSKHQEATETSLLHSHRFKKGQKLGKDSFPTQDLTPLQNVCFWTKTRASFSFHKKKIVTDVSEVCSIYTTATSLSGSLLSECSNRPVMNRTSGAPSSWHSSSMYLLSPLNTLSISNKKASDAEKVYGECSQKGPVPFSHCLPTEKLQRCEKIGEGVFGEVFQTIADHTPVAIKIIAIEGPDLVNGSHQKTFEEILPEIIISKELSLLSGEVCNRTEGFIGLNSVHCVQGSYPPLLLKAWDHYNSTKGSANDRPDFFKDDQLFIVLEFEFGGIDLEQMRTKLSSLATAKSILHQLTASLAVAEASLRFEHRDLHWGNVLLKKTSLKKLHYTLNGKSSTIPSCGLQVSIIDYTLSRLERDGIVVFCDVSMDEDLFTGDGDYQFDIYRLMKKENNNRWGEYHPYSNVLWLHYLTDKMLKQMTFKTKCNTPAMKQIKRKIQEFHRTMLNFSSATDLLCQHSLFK

[4] = target: T3, MEK1 (Homo sapiens, UniProt Q02750)
T3 construct: gene MAP2K1

[5] = target: PKN2 (Homo sapiens, UniProt Q16513)
[6] = read-out: Olaparib / %Ctrl @ 10000nM
[7] = read-out: Talazoparib (BMN 673) / %Ctrl @ 10000nM
[8] = read-out: Rucaparib / %Ctrl @ 10000nM, binding competition, % of control
[9] = read-out: Niraparib (MK-4827) / %Ctrl @ 10000nM

T3 sequence (Q02750 whole entry): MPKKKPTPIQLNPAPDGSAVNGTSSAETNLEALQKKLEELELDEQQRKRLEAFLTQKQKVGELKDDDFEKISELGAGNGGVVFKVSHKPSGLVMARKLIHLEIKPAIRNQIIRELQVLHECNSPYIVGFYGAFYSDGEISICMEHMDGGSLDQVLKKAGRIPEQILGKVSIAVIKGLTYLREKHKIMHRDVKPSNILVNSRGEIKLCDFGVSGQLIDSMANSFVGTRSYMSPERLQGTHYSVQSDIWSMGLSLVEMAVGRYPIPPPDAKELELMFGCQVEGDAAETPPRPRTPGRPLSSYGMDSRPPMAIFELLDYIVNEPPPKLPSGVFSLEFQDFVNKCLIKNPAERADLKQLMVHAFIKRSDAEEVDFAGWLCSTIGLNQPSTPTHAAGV
Sequence of EGFR(L858R) (P00533 whole entry L858R): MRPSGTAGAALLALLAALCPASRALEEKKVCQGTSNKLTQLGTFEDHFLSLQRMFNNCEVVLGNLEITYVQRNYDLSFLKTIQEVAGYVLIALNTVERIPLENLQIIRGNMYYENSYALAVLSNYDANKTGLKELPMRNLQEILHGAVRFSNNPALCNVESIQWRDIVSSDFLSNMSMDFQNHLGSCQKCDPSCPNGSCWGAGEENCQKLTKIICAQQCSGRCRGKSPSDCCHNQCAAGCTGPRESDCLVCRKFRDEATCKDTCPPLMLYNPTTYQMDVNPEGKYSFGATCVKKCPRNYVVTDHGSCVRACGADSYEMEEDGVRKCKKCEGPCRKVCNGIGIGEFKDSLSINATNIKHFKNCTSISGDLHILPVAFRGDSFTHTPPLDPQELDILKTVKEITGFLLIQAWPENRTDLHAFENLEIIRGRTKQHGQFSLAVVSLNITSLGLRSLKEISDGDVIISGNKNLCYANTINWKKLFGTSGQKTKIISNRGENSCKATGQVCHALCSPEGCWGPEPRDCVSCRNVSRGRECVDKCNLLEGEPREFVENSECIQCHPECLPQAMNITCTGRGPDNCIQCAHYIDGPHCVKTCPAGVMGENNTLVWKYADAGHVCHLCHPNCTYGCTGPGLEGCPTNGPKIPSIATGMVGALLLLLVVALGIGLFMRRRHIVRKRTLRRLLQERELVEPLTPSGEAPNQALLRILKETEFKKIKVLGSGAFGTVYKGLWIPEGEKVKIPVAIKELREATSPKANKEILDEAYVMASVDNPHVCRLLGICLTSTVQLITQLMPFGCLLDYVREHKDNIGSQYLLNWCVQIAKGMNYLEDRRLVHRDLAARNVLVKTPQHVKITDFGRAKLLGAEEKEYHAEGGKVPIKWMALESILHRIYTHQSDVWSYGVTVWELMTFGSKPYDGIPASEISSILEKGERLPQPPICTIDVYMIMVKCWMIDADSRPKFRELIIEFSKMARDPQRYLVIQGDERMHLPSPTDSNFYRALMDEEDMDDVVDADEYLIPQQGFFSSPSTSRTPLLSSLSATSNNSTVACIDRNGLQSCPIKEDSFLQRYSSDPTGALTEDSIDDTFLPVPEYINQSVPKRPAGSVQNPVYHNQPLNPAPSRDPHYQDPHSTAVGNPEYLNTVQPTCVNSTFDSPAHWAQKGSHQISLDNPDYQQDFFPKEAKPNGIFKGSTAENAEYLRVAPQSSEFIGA
Sequence of PKN2 (Q16513 whole entry): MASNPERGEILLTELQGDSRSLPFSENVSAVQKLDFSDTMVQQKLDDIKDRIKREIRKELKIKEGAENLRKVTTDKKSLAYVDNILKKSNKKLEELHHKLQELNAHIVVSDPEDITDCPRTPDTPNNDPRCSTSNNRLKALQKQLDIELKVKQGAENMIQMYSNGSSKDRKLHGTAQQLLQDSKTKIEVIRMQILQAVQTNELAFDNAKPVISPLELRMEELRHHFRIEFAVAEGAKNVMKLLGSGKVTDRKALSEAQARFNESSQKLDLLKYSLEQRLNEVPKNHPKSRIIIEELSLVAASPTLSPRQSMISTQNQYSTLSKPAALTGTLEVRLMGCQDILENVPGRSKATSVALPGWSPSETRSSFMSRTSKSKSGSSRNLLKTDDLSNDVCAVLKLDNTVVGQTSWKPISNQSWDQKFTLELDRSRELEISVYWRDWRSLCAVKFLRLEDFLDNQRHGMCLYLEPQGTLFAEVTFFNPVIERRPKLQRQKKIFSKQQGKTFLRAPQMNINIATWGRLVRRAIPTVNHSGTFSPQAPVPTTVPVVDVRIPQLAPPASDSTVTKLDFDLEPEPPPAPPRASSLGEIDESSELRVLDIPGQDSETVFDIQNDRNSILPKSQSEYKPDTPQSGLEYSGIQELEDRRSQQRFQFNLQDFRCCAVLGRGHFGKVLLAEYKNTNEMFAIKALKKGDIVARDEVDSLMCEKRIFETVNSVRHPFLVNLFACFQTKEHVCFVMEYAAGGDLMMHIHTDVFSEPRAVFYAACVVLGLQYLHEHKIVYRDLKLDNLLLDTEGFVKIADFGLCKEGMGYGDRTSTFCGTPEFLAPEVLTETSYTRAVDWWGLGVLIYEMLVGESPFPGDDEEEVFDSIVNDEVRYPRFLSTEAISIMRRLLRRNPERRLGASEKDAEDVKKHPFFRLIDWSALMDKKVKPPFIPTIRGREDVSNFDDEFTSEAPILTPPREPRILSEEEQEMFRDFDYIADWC

percent of control binding at 10 µM [1, 6]: 78%
percent of control binding at 10 µM [2, 6]: 92%
percent of control binding at 10 µM [3, 6]: 72%
percent of control binding at 10 µM [4, 6]: 79%
percent of control binding at 10 µM [5, 6]: 100%
SMILES: O=C(c1cc(Cc2n[nH]c(=O)c3ccccc23)ccc1F)N1CCN(C(=O)C2CC2)CC1 [Olaparib]

percent of control binding at 10 µM [1, 7]: 79%
percent of control binding at 10 µM [2, 7]: 97%
percent of control binding at 10 µM [3, 7]: 100%
percent of control binding at 10 µM [4, 7]: 67%
percent of control binding at 10 µM [5, 7]: 85%
SMILES: Cn1ncnc1[C@H]1c2n[nH]c(=O)c3cc(F)cc(c23)N[C@@H]1c1ccc(F)cc1 [Talazoparib]

percent of control binding at 10 µM [1, 8]: 83%
percent of control binding at 10 µM [2, 8]: 96%
percent of control binding at 10 µM [3, 8]: 9%
percent of control binding at 10 µM [4, 8]: 69%
percent of control binding at 10 µM [5, 8]: 99%
SMILES: CNCc1ccc(-c2[nH]c3cc(F)cc4c3c2CCNC4=O)cc1 [Rucaparib]

SMILES: NC(=O)c1cccc2cn(-c3ccc([C@@H]4CCCNC4)cc3)nc12 [Niraparib]
percent of control binding at 10 µM [1, 9]: 93%
percent of control binding at 10 µM [2, 9]: 70%
percent of control binding at 10 µM [3, 9]: 2.2%
percent of control binding at 10 µM [4, 9]: 79%
percent of control binding at 10 µM [5, 9]: 95%

From paper PMC7026418, “The kinase polypharmacology landscape of clinical PARP inhibitors” (Scientific Reports, 2020)
